The record followed here is patent publication US9943613B2 (priority 2012, dated 2018).

The subject of data set [1] is RES-LTC chondrosarcoma cell line. Kind of data set: Modified MTT assay for metabolic activity. In kind it is cell-based. The conditions noted are these: 48 hour timepoint; for MTT metabolic activity: FIG. 3. The protocol:
Assays: Modified MTT assay for metabolic activity (absorbance).
(§1) Assay data analysis: Expressed as % of the positive controls for MTT and picogreen. MTT absorbance measures then normalized to the μgDNA/ml generated by the picogreen assay.
(§2) Cell cultures: RES-LTC chondrosarcoma cell line. Expresses hyaline-like chondrocyte phenotype and reliably produces large, homogeneous cell populations
(§3) Cell cultures in 96 well plates. Each compound, at a fixed concentration, was added in triplicate for each assay. MTT and picogreen assays in separate plates (assays interfere with each other). All plates treated together. Assays run at 48 hour timepoint. Microscopy performed to confirm findings.

The subject of another data set is rabbit stifle joints. Kind of data set: Single intra-articular injection toxicity model in rabbit stifles. In kind it is in vivo, New Zealand White rabbits. The conditions noted are these: for Synovial inflammation scoring: versus PBS-injected stifles, FIG. 7. The text has this: Rabbits were euthanized two weeks post-injection. Both left and right stifles were harvested and immediately fixed in 10% neutral buffered formalin, then set for histological processing. Five-micron thick slides from each knee were stained with Hematoxylin & Eosin and Safranin-O.

The subject of data set [2] is RES-LTC chondrosarcoma cell line. Kind of data set: Quantitative picogreen assay for cell proliferation. Conditions: 10 mM, 48 hour timepoint, FIG. 4. The data set is classed as cell-based. As to the method:
Quantitative picogreen for cell proliferation (μgDNA/ml).
as §1, §2, §3

The test system of a further data set is human knee. Conditions: 10 minutes after intraarticular injection of 25 ml of 5 mM solution in PBS, 3 Tesla, FIG. 9. As to the method:
Coronal T1-weighted MR images of a human knee were taken in a human cadaver. Coronal T1-weighted MR contrast images were also taken ex vivo in a human cadaver 10 minutes after intraarticular injection of 25 ml of a 5 mM solution of DAB-4 citrate diluted in PBS. […] All images were performed on a Siemens Skyra 3 Tesla magnet using a 15 channel transmit/receive QED knee coil. (14 cm FOV (field of view); 3 mm thick slice; 384×384 matrix; TR 800 ms; TE 8.6 ms; Turbo factor of 2; receiver bandwidth 350 Hz/pixel.)

In data set [3] the test system is glycosaminoglycans (GAG) in the cartilage. Kind of data set: T1 value map versus Safranin-O/fast green histology of cartilage-bone plug equilibrated in contrast agent (GAG targeting). Conditions: human tibial plateau cartilage-bone plug equilibrated in contrast agent. The source says: Cartilage-bone plug excised from a human tibial plateau that was retrieved from total knee replacement surgery was equilibrated in DAB-4 linked nitroxide citrate. T1 value map (as acquired for FIG. 1) is compared to histology in FIG. 2: • a) T1 value map: orange color is lower T1 value indicating more contrast agent and more glycosaminoglycans (GAG) in the cartilage. • b) Histology of the same specimen stained with Safranin-O/fast green.

Setting [4] is: two weeks post-injection, histology.

Take `CNC[C@H](O)[C@@H](O)[C@H](O)[C@H](O)CO.CNC[C@H](O)[C@@H](O)[C@H](O)[C@H](O)CO.O=C([O-])CN(CCN(CC(=O)[O-])CC(=O)O)CCN(CC(=O)[O-])CC(=O)O.[Gd+3]` [Magnevist]: the “MTT data normalized to μgDNA/ml (health of the cells)” value in data set [1] (10 mM, FIG. 5) was “abnormally high”. The “clinical signs of inflammation or lameness” value in the data set with rabbit stifle joints (single intra-articular injection, two weeks observation) was “No animals presented clinical signs of inflammation or lameness”. For the same molecule, the “Modified Mankin scoring (structural damage / joint degeneration)” value in the data set with rabbit stifle joints (two weeks post-injection, histology, FIG. 6) was “did not uncover any signs of structural damage and/or degenerative response”. Besides, the Synovial inflammation scoring entry with rabbit stifle joints (setting [4]) was “no difference between Magnevist or DAB-4 linked nitroxide and the PBS-injected stifles”. Moreover, the Picogreen cell proliferation entry in data set [2] is recorded as “low cell proliferation”.
Regarding “DAB-dendrimer-(NH-3-CO-PROXYL)8 [DAB-8 linked nitroxide]”, the MTT metabolic activity entry in data set [1] (concentrations above 1 mM) is “less metabolic activity than positive controls (untreated), or DAB-4 linked nitroxide and Magnevist”.
“Citric Acid Salt of DAB-4 Linked Nitroxide [DAB-4 linked nitroxide citrate]”: in the data set with human knee, the “T1-weighted MR contrast of joint fluid and cartilage surfaces” value is “the joint fluid (asterisk) is now bright and outlines the cartilage surfaces”; the “detection of cartilage defect on T1-weighted MR image” value is “A partial thickness cartilage defect (arrow) is easily identified”. In data set [3], the “agreement of T1 value map with histology stain for GAG concentration” value is “high GAG concentration in the same areas indicated by DAB-4 linked nitroxide on the T1 value map and the stain on the histology map”.
In the case of “DAB-dendrimer-(NH-3-CO-PROXYL)4 [DAB-4 linked nitroxide]”, the MTT metabolic activity result in data set [1] (1-10 mM) is recorded as “less metabolic activity than positive controls but greater than for DAB-8 linked nitroxide”. Besides, in the data set on rabbit stifle joints (setting [4]), the Synovial inflammation scoring entry is “no difference between Magnevist or DAB-4 linked nitroxide and the PBS-injected stifles”. Further, the “agreement of T1 value map with histology stain for GAG concentration” value in data set [3] was “high GAG concentration in the same areas as indicated by DAB-4 linked nitroxide on the T1 value map and the stain on the histology map”.
